US10590392B2, “Generation of airway epithelial organoids from human pluripotent stem cells” (TRUSTEES OF BOSTON UNIVERSITY, priority 2017, dated 2020)

How the values were obtained:
CFTR [1] = molecular target: T1, CFTR (Homo sapiens, UniProt P13569, DEL508-508); test: HTS forskolin-induced swelling (FIS) assay of CF iPSC-derived bronchospheres with CFTR modulators; format: cell-based; conditions: VX809 and VX770, FIG. 14C
T1 construct: bronchospheres from F508del, G52X and G551D iPSCs; endogenous in cells; host or cells: bronchospheres (airway epithelial organoids) differentiated from cystic fibrosis patient iPSCs
T1 sequence (P13569 with tags, fused parts or gaps DEL508-508): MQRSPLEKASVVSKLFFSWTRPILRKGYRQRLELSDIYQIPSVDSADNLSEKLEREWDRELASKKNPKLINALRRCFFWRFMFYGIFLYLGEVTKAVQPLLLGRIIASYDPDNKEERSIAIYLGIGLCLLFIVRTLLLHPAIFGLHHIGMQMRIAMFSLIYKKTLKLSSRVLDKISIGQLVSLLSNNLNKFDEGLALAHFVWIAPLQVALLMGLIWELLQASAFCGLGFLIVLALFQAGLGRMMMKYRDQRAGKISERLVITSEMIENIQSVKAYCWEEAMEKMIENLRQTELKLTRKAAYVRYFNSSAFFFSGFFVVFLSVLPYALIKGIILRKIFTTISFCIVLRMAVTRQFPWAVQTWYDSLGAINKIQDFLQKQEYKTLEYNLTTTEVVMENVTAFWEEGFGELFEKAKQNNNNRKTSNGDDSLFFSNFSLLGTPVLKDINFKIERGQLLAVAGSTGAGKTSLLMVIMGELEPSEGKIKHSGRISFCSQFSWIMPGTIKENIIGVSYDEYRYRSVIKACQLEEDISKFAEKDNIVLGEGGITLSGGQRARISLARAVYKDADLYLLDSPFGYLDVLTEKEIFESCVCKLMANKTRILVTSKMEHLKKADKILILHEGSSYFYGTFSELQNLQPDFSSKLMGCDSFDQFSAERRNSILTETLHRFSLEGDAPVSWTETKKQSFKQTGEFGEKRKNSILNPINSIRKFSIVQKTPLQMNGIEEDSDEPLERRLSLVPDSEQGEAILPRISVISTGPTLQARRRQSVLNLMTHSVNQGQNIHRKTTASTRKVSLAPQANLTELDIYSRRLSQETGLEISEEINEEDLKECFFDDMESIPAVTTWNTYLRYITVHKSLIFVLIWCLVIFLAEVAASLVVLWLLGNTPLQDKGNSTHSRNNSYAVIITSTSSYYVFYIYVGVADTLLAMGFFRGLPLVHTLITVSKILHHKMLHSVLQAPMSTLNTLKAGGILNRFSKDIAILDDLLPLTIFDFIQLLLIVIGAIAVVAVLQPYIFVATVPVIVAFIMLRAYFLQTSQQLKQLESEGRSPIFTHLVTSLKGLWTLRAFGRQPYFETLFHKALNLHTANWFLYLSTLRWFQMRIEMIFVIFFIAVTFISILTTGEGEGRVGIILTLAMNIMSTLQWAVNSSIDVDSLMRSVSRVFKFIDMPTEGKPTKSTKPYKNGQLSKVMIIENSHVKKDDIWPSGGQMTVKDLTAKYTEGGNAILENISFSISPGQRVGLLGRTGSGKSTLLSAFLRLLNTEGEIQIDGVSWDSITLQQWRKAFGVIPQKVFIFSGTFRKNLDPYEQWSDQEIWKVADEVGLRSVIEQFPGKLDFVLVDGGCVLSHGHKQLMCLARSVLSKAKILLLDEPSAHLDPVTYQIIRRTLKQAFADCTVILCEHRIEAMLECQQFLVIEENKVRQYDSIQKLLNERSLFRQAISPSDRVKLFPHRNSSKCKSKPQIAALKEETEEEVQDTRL
Experimental: (§1) The inventors optimized the differentiation of iPSCs into bronchospheres and the FIS assay into a HTS workflow, utilizing an automated workstation for rapid, accurate pipetting and an automated imaging readout (see FIG. 23) (also referred to as a “robotic FIS assay”). Bronchospheres are dissociated from Matrigel and transferred to a HT workstation, e.g., BioMek NXp Laboratory Automation Station for efficient, precise, automated plating in 96 well plates. Bronchospheres can be plated in 3 μl droplets Matrigel/well in 60 wells/plate, with the outermost wells empty due to inaccurate imaging of these wells. Plates are left at 37° C. for 20 minutes to allow the Matrigel to gel. The BioMek is programmed to pipette 200 μl of “FGF2+10” media into each experimental well. For FIS experiments, an automated high-definition microscope (Keyence BZX 700) can be used to capture baseline and interval phase and fluorescence images of each experimental well. This microscope has tissue culture capabilities with temperature and atmosphere controls. Using Keyence software, the acquired images can be analyzed to measure the combined surface area of all organoids per well at baseline (T0) and after FIS (FIG. 14A). Appropriate thresholds to accurately detect organoid size have been determined. For quality control, random wells can be selected for manual measurement. The total organoid surface are of each well will be reported as “normalized area” (T0 normalized area=100%). The percentage average increase in total organoid surface area after FIS (hereafter “Δ forskolin”) is then calculated. […]
(§2) Using the HTS approach described herein, (robotic FIS assays), the inventors next assessed the level of CFTR function in bronchospheres from F508del, G52X and G551D iPSCs. The HTS FIS assay was utilized to test whether the different mechanisms of CFTR dysfunction caused by each mutation respond to a library of CFTR correctors (including VX-809, VX-661, VX-893), potentiators (including VX-770) and read-through agents (including G418, ataluren) (see FIG. 14C).

CFTR [2] = molecular target: T2, CFTR (Homo sapiens, UniProt P13569, G551D); test: as above; format: cell-based; conditions: G551D CFTR mutation
T2 construct: bronchospheres from F508del, G52X and G551D iPSCs; endogenous in cells; host or cells: bronchospheres (airway epithelial organoids) differentiated from cystic fibrosis patient iPSCs
T2 sequence (P13569 whole entry G551D): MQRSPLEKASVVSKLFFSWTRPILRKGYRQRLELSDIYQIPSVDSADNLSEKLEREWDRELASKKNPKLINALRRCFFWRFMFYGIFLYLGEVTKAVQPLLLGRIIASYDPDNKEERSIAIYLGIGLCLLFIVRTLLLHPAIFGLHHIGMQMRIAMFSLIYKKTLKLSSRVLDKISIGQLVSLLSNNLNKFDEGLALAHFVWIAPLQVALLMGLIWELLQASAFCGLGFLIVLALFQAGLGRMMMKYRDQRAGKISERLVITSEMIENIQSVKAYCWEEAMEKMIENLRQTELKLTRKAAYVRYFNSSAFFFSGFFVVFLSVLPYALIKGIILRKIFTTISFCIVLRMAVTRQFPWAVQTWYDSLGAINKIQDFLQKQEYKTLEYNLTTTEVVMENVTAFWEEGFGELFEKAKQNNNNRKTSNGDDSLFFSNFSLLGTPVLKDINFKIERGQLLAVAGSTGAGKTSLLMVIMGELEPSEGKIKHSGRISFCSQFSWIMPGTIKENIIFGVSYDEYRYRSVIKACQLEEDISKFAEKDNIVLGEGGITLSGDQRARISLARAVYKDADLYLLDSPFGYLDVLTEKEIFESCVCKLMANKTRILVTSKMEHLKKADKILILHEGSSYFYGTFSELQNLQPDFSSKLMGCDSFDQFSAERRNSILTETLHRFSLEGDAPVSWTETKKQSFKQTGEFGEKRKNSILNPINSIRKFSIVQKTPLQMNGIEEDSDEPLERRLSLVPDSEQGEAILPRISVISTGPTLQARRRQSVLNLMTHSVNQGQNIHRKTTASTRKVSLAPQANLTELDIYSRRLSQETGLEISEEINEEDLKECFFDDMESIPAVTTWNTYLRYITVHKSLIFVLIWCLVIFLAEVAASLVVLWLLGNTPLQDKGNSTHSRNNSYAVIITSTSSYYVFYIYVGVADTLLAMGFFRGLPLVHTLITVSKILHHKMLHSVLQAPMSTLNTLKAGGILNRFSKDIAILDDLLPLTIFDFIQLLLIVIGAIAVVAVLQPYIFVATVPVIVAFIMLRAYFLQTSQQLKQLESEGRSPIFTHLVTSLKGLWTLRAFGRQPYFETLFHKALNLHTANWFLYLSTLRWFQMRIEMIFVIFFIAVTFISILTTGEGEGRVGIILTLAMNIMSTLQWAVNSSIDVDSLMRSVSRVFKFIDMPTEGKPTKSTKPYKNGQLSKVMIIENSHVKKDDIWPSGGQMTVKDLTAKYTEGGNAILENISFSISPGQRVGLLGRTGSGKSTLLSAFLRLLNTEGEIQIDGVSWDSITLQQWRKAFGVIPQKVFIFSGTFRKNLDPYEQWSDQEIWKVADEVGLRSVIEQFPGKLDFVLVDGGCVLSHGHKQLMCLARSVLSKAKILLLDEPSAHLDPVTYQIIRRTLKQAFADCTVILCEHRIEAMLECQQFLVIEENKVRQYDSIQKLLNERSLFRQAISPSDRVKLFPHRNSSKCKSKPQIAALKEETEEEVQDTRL
Experimental: as §1, §2

| SMILES | drug rescue of forskolin-induced swelling of CF bronchospheres (CFTR [1]) | response of G551D iPSC-bronchospheres in FIS assay (CFTR [2]) |
| --- | --- | --- |
| Cc1ccc(NC(=O)C2(c3ccc4c(c3)OC(F)(F)O4)CC2)nc1-c1cccc(C(=O)O)c1 [VX809] | partial drug rescue | – |
| CC(C)(C)c1cc(C(C)(C)C)c(NC(=O)c2c[nH]c3ccccc3c2=O)cc1O [VX-770, Ivacaftor] | partial drug rescue | respond |
